Data published in patent publication US9718817B2, “Aryl and heteroaryl ether compounds as ROR gamma modulators” (Glenmark Pharmaceuticals S.A., priority 2014, dated 2017).

Target: T1, GST-tagged ROR gamma ligand binding domain (LBD) (Homo sapiens, UniProt P51449)
T1 construct: purchased Invitrogen
T1 sequence (P51449 269-508 limits assumed): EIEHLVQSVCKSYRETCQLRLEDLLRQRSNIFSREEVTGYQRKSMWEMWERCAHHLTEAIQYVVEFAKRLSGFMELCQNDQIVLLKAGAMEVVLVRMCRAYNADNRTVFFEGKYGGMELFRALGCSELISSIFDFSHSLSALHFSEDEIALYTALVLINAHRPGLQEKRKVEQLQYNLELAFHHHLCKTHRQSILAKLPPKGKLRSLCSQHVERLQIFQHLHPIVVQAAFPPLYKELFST
Assay: TR-FRET assay for ROR gamma (LanthaScreen co-activator peptide recruitment)
Format: biochemical
Details: for IC50: class symbols, from dose response curve; for inhibition at 1 µM: compound 1 μM; for inhibition at 1 µM / inhibition at 10 µM: TR-FRET ratio 520/495, percent of control; for inhibition at 10 µM: compound 10 μM
How it was run: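 Antagonist mode: 10 nM GST-RORγ LBD pre-incubated with compound 1 h at 22 °C in 25 mM HEPES pH 7.4, 100 mM NaCl, 5 mM DTT, 0.01% BSA, 4% DMSO final. Then 300 nM fluorescein-D22 co-activator peptide plus 10 nM Tb-anti-GST added, 1 h at room temperature. IC50 by nonlinear regression of the 520/495 TR-FRET ratio as percent of no-compound control.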

SMILES	IC50 [nM]	inhibition at 1 µM [%]	inhibition at 10 µM [%]
CCS(=O)(=O)c1ccc(CC(=O)Nc2ccc(C#CC(C)(C)Oc3ccc(Cl)c(F)c3)c(F)c2)cc1 [Example 106, N-{4-[3-(4-Chloro-3-fluoro-phenoxy)-3-methyl-but-1-ynyl]-3-fluoro-phenyl}-2-(4-ethanesulfonyl-phenyl)-acetamide]	< 50	81.9	85.9
CCS(=O)(=O)c1ccc(CC(=O)Nc2ccc(OC(C)(C)c3ccc(F)cc3F)c(F)c2)cc1 [Example 107, N-{4-[1-(2,4-Difluoro-phenyl)-1-methyl-ethoxy]-3-fluoro-phenyl}-2-(4-ethanesulfonyl-phenyl)-acetamide]	–	59	59.5
CCS(=O)(=O)c1ccc(CC(=O)Nc2ccc(OC(C)(C)Cn3c(C)cc4cc(F)ccc43)c(F)c2)cc1 [Example 108, 2-(4-Ethanesulfonyl-phenyl)-N-{3-fluoro-4-[2-(5-fluoro-2-methyl-indol-1-yl)-1,1-dimethyl-ethoxy]-phenyl}-acetamide]	–	9.67	61.4
CCS(=O)(=O)c1ccc(CC(=O)Nc2cc(F)c(OC(C)(C)c3ccc(Cl)cc3Cl)c(F)c2)cc1 [Example 109, N-{4-[1-(2,4-Dichloro-phenyl)-1-methyl-ethoxy]-3,5-difluoro-phenyl}-2-(4-ethanesulfonyl-phenyl)-acetamide]	–	16.6	17.2
CCS(=O)(=O)c1ccc(CC(=O)Nc2cc(F)c(OC(C)(C)c3ncc(Cl)cc3Cl)c(F)c2)cc1 [Example 110, N-{4-[1-(3,5-Dichloro-pyridin-2-yl)-1-methyl-ethoxy]-3,5-difluoro-phenyl}-2-(4-ethanesulfonyl-phenyl)-acetamide]	–	23.7	47.6
CCn1c(C(C)(C)Oc2ccc(NC(=O)Cc3ccc(S(=O)(=O)CC)cc3)cc2F)nc2cc(F)ccc21 [Example 111, 2-(4-Ethanesulfonyl-phenyl)-N-{4-[1-(1-ethyl-5-fluoro-1H-benzoimidazol-2-yl)-1-methyl-ethoxy]-3-fluoro-phenyl}-acetamide]	< 50	88	86.8
CCS(=O)(=O)c1ccc(CC(=O)Nc2ccc3c(c2)nc(C(C)(C)Oc2ccc(F)cc2F)n3CCN(C)C)cc1 [Example 113, N-[2-[1-(2,4-Difluoro-phenoxy)-1-methyl-ethyl]-1-(2-dimethylamino-ethyl)-1H-benzoimidazol-5-yl]-2-(4-ethanesulfonyl-phenyl)-acetamide]	–	15.6	52.4
CCS(=O)(=O)c1ccc(CC(=O)Nc2ccc3c(c2)nc(C(C)(C)Oc2ccc(F)cc2F)n3CC2CC2)cc1 [Example 114, N-{1-Cyclopropylmethyl-2-[1-(2,4-difluoro-phenoxy)-1-methyl-ethyl]-1H-benzoimidazol-5-yl}-2-(4-ethanesulfonyl-phenyl)-acetamide]	< 50	78.9	82.6
CCCn1c(C(C)(C)Oc2ccc(F)cc2F)nc2cc(NC(=O)Cc3ccc(S(=O)(=O)CC)cc3)ccc21 [Example 115, N-{2-[1-(2,4-Difluoro-phenoxy)-1-methyl-ethyl]-1-propyl-1H-benzoimidazol-5-yl}-2-(4-ethanesulfonyl-phenyl)-acetamide]	< 50	82.4	88.3
CCS(=O)(=O)c1ccc(CC(=O)Nc2ccc3c(c2)nc(C(C)(C)Oc2ccc(F)cc2F)n3CC(C)C)cc1 [Example 116, N-{2-[1-(2,4-Difluoro-phenoxy)-1-methyl-ethyl]-1-isobutyl-1H-benzoimidazol-5-yl}-2-(4-ethanesulfonyl-phenyl)-acetamide]	> 100	79.1	84.5
CCS(=O)(=O)c1ccc(CC(=O)Nc2ccc3c(c2)nc(C(C)(C)Oc2ccc(F)cc2F)n3C(C)C)cc1 [Example 117, N-{2-[1-(2,4-Difluoro-phenoxy)-1-methyl-ethyl]-1-isopropyl-1H-benzoimidazol-5-yl}-2-(4-ethanesulfonyl-phenyl)-acetamide]	> 100	82.7	86.7
